The source of these data is patent US11926625B2, “HPK1 antagonists and uses thereof” (Nimbus Saturn, Inc., priority 2021, dated 2024).

The target of this assay is T1, HPK1 (Homo sapiens, UniProt Q92918).
T1 construct: purchased Invitrogen
T1 sequence (Q92918 whole entry): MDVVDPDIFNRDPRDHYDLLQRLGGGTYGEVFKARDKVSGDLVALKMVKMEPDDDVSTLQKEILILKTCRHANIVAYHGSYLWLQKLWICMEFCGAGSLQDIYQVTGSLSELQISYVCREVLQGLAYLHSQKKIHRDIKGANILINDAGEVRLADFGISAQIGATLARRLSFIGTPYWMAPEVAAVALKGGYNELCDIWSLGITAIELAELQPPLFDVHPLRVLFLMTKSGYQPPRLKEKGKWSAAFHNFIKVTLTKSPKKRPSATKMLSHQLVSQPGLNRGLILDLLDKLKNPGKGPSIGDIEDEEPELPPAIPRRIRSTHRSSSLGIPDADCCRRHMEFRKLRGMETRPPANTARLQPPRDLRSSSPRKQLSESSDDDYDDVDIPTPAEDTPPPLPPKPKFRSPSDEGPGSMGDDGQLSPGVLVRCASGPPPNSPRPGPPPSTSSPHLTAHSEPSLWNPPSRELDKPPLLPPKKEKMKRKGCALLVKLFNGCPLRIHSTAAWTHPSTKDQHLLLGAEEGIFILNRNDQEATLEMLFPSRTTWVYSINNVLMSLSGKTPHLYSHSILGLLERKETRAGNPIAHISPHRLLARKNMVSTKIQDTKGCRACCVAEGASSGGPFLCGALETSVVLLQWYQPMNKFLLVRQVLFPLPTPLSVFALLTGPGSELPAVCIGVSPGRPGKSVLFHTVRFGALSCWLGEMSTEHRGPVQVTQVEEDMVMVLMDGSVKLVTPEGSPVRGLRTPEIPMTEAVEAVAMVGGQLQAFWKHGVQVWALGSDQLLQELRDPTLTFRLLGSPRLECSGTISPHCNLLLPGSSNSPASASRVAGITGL
As to the kind of experiment: HPK1 biochemical enzyme assay (microfluidic mobility shift, Caliper). Particulars: 1.5 nM HPK1 (Invitrogen), 1 mM ATP, 30 min preincubation, 60 min at RT, top concentration 3 μM; read-out: HPK1 1000UMATP caliper IC50. Put shortly: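 Mobility shift assay with 1.5 nM HPK1 at pH 7.4; compounds in ten-point titration (top final 3 μM) preincubated 30 min with enzyme. Reaction started with 1 mM ATP and 1 μM substrate, 5 mM MgCl2 final, run 60 min at RT before termination and readout.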
Take `O=C1NCc2c(N3CCOCC3)ncc(Nc3ccc(N4CCNCC4)cn3)c21` [Compound I-16, 4-morpholino-7-[(5-piperazin-1-yl-2-pyridyl)amino]-2,3-dihydropyrrolo [3,4-c]pyridin-1-one]: the IC50 fell in the range of 1000 to 5000 nM. In the case of `CN1CCN(c2ccc(Nc3ccc(-c4ccnc(N5CCOCC5)c4)c4c3C(=O)NC4)nc2)CC1` [Compound I-32, 7-[[5-(4-methylpiperazin-1-yl)-2-pyridyl]amino]-4-(2-morpholino-4-pyridyl) isoindolin-1-one], the IC50 is less than 1000 nM. Consider `CC#Cc1cc(-c2ccc(Nc3ccc(N4CCN(C)CC4)cn3)c3c2CNC3=O)ccn1` [Compound I-60, 7-((5-(4-methylpiperazin-1-yl)pyridin-2-yl)amino)-4-(2-(prop-1-yn-1-yl)pyridin-4-yl)isoindolin-1-one], for which the IC50 was less than 1000 nM. As for `O=C1NCc2c(-c3ccncc3)ncc(Nc3ccc(N4CCOCC4)cn3)c21` [Compound I-14, 7-[(5-morpholino-2-pyridyl)amino]-4-(4-pyridyl)-2,3-dihydropyrrolo [3,4-c]pyridin-1-one], the half-maximal inhibitory concentration (IC50) lay within 1000 to 5000 nM. `O=C1NCc2c(C3CCOCC3)ncc(Nc3ccc(N4CCNCC4)cn3)c21` [Compound I-2, 7-[(5-piperazin-1-yl-2-pyridyl)amino]-4-tetrahydropyran-4-yl-2,3-dihydropyrrolo [3,4-c]pyridin-1-one]: the IC50 was 1000 to 5000 nM. In the case of `COc1cccc(-c2ncc(Nc3ccc(N4CCNCC4)cn3)c3c2CNC3=O)c1OC` [Compound I-20, 4-(2,3-dimethoxyphenyl)-7-[(5-piperazin-1-yl-2-pyridyl)amino]-2,3-dihydropyrrolo [3,4-c]pyridin-1-one], the IC50 was in the range of 1000 to 5000 nM. On to `Cn1cnc(-c2ccccc2)c1-c1ccc(Nc2ccc(N3CCNCC3)cn2)c2c1CNC2=O` [Compound I-79, 4-(1-methyl-4-phenyl-1H-imidazol-5-yl)-7-((5-(piperazin-1-yl)pyridin-2-yl)amino) isoindolin-1-one], for which the half-inhibitory concentration (IC50) is less than 1000 nM. With `CNC1CCN(c2ccc(Nc3ccc(-c4ccncc4)c4c3C(=O)NC4)nc2)CC1` [Compound I-53, 7-[[5-[4-(methylamino)-1-piperidyl]-2-pyridyl]amino]-4-(4-pyridyl) isoindolin-1-one] the figure was less than 1000 nM.

For the compound `CN1CCN(c2ccc(Nc3ccc(-c4ccnc(N5CCC6(CCOCC6)CC5)c4)c4c3C(=O)NC4)nc2)CC1` [Compound I-33, 7-[[5-(4-methylpiperazin-1-yl)-2-pyridyl]amino]-4-[2-(3-oxa-9-azaspiro[5. 5]undecan-9-yl)-4-pyridyl] isoindolin-1-one], the IC50 lay within 1000 to 5000 nM.

For the compound `CN1CCN(c2ccc(Nc3ccc(-c4ccnc(C#CC5CCCCC5)c4)c4c3C(=O)NC4)nc2)CC1` [Compound I-63, 4-(2-(cyclohexylethynyl)pyridin-4-yl)-7-((5-(4-methylpiperazin-1-yl)pyridin-2-yl)amino) isoindolin-1-one], the IC50 was less than 1000 nM. `CN1CCN(c2ccc(Nc3ccc(-c4cccnc4)c4c3C(=O)NC4)nc2)CC1` [Compound I-30, 7-[[5-(4-methylpiperazin-1-yl)-2-pyridyl]amino]-4-(3-pyridyl) isoindolin-1-one]: the concentration for half-maximal inhibition (IC50) was less than 1000 nM. As for `CS(=O)(=O)c1ncc(Nc2ccc(N3CCNCC3)cn2)c2c1CNC2=O` [Compound I-5, 4-methylsulfonyl-7-[(5-piperazin-1-yl-2-pyridyl)amino]-2,3-dihydropyrrolo [3,4-c]pyridin-1-one], the IC50 lay in the range of 1000 to 5000 nM.
